Among the data in patent publication US10543212B2, “Substituted amines for treating cardiac diseases” (Cardurion Pharmaceuticals, LLC, priority 2017, dated 2020) are IC50 values, retold here.

The target of this assay is T1, Full-length, GST-tagged, human CaMKIIδ (Homo sapiens, UniProt Q13557).
T1 construct: Full-Length, Glutathione-S-Transferase(GST)-Tagged, Human CaMKIIδ was purchased from Carna Biosciences; purchased Carna Biosciences 02-111
Nature of the assay: CaMKIIδ binding assay (TR-FRET with BODIPY-labeled probe ligand). Summed up: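 Compounds were tested as 4-fold, eight-point series for 1 hr at room temperature, and IC50 was obtained by logistic fitting against a 3 μM parent-compound control. Signal came from displacement of a 300 nM BODIPY ligand from 0.5 nM GST-CaMKIIδ, detected via Tb-anti-GST in calmodulin/Ca2+ (pH 7.6).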

[1] abbreviates: CaMKIIδ binding assay, activity class per Table 2.
[2] abbreviates: Table 2, CaMKIIδ binding assay, activity given as class A/B/C.
The mark [3] stands for this setting: CaMKIIδ binding assay, results of Table 2.
[4] abbreviates: Table 2, activity class for CaMKIIδ.

T1 sequence (Q13557 1-478 isoform Q13557-12): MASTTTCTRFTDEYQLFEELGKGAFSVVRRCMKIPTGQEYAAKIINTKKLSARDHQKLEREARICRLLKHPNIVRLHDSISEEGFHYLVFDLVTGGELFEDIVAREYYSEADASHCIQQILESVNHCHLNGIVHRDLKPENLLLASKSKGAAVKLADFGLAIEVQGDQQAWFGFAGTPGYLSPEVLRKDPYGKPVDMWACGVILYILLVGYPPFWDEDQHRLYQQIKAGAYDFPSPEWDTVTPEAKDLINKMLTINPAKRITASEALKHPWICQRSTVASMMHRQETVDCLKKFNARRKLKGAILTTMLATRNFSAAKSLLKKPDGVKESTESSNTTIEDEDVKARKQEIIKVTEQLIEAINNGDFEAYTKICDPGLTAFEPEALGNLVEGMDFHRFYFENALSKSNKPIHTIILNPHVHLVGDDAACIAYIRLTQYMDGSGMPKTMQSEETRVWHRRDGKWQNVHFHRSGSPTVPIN

In turn, `C[C@@H](Cn1cnnn1)Oc1cc(-c2cnc(Nc3cn(C4CC5(C4)CN(C4CCC4)C5)nc3C(F)(F)F)nc2)ccc1Cl` [Example 921, (S)-5-(3-((1-(1H-tetrazol-1-yl)propan-2-yl)oxy)-4-chlorophenyl)-N-(1-(2-cyclobutyl-2-azaspiro[3.3]heptan-6-yl)-3-(trifluoromethyl)-1H-pyrazol-4-yl)pyrimidin-2-amine] yielded an IC50 under setting [1] of less than 0.01 µM.
`C[C@@H](Cn1cnnn1)Oc1cc(-c2cnc(Nc3cn(C4CCN(C5CCOCC5)CC4)nc3C(F)F)nc2)ccc1Cl` [Example 769, (S)-5-(3-((1-(1H-tetrazol-1-yl)propan-2-yl)oxy)-4-chlorophenyl)-N-(3-(difluoromethyl)-1-(1-(tetrahydro-2H-pyran-4-yl)piperidin-4-yl)-1H-pyrazol-4-yl)pyrimidin-2-amine] showed an IC50 under setting [2] of less than 0.01 µM.
`COc1ccc(N2CCN(CC(N)=O)CC2)cc1Nc1ncc(-c2ccc(Cl)c(O[C@@H](C)Cn3cnnn3)c2)cn1` [Example 579, (S)-2-(4-(3-((5-(3-((1-(1H-tetrazol-1-yl)propan-2-yl)oxy)-4-chlorophenyl)pyrimidin-2-yl)amino)-4-methoxyphenyl)piperazin-1-yl)acetamide] returned an IC50 under setting [3] of less than 0.01 µM.
Same read-out and setting: to `COc1cc2c(cc1Nc1ncc(-c3ccc(Cl)c(O[C@@H](C)Cn4cnnn4)c3)cn1)N(C(=O)CN(C)C)CC2` [Example 497, (S)-1-(6-((5-(3-((1-(1H-tetrazol-1-yl)propan-2-yl)oxy)-4-chlorophenyl)pyrimidin-2-yl)amino)-5-methoxyindolin-1-yl)-2-(dimethylamino)ethan-1-one] belongs less than 0.01 µM.
As to `COc1cccc(-n2cc(Nc3ncc(-c4ccc(Cl)c(O[C@@H](C)Cn5cnnn5)c4)cn3)c(OCC(F)(F)F)n2)n1` [Example 878, (S)-5-(3-((1-(1H-tetrazol-1-yl)propan-2-yl)oxy)-4-chlorophenyl)-N-(1-(6-methoxypyridin-2-yl)-3-(2,2,2-trifluoroethoxy)-1H-pyrazol-4-yl)pyrimidin-2-amine], under setting [2], the IC50 was no less than 0.1 µM.
Same read-out and setting: to `C[C@@H](Cn1cnnn1)Oc1cc(-c2cnc(Nc3cn(C4CC5(C4)CN(CC(C)(C)O)C5)nc3C(F)(F)F)nc2)ccc1Cl` [Example 859, (S)-1-(6-(4-((5-(3-((1-(1H-tetrazol-1-yl)propan-2-yl)oxy)-4-chlorophenyl)pyrimidin-2-yl)amino)-3-(trifluoromethyl)-1H-pyrazol-1-yl)-2-azaspiro[3.3]heptan-2-yl)-2-methylpropan-2-ol] belongs less than 0.01 µM.
With `COc1cc2c(cc1Nc1ncc(-c3ccc(Cl)c(O[C@@H](C)Cn4cnnn4)c3)cn1)C(=O)N(C1CCOCC1)C2` [Example 438, (S)-6-((5-(3-((1-(1H-tetrazol-1-yl)propan-2-yl)oxy)-4-chlorophenyl)pyrimidin-2-yl)amino)-5-methoxy-2-(tetrahydro-2H-pyran-4-yl)isoindolin-1-one], the IC50 under setting [3] lay in the range of 0.01 to 0.1 µM.
As for `C[C@@H](Cn1cnnn1)Oc1cc(-c2cnc(Nc3cn(CCN4CCOCC4)nc3C(F)(F)F)nc2)ccc1Cl` [Example 633, (S)-5-(3-((1-(1H-tetrazol-1-yl)propan-2-yl)oxy)-4-chlorophenyl)-N-(1-(2-morpholinoethyl)-3-(trifluoromethyl)-1H-pyrazol-4-yl)pyrimidin-2-amine], the IC50 under setting [4] was 0.01 to 0.1 µM.
The compound `C[C@@H](Cn1cnnn1)Oc1cc(-c2cnc(Nc3cc(N4CCN(C5CCOCC5)CC4)ncc3OC(F)(F)F)nc2)ccc1Cl` [Example 541, (S)-5-(3-((1-(1H-tetrazol-1-yl)propan-2-yl)oxy)-4-chlorophenyl)-N-(2-(4-(tetrahydro-2H-pyran-4-yl)piperazin-1-yl)-5-(trifluoromethoxy)pyridin-4-yl)pyrimidin-2-amine] displayed an IC50 under setting [3] of less than 0.01 µM.
As for `C[C@@H](Cn1cnnn1)Oc1cc(-c2cnc(Nc3cn([C@H]4CC[C@@H](N5CCOCC5)CC4)nc3OC[C@@H]3CC3(F)F)nc2)ccc1Cl` [Example 870, 5-(3-(((S)-1-(1H-tetrazol-1-yl)propan-2-yl)oxy)-4-chlorophenyl)-N-(3-(((S)-2,2-difluorocyclopropyl)methoxy)-1-(cis-4-morpholinocyclohexyl)-1H-pyrazol-4-yl)pyrimidin-2-amine], under setting [2], the IC50 is less than 0.01 µM.
In the case of `C[C@@H](Cn1cnnn1)Oc1cc(-c2cnc(Nc3cn([C@H]4CC[C@@H](N5CCC5)CC4)nc3C(F)(F)F)nc2)ccc1Cl` [Example 778, 5-(3-(((S)-1-(1H-tetrazol-1-yl)propan-2-yl)oxy)-4-chlorophenyl)-N-(1-(cis-4-(azetidin-1-yl)cyclohexyl)-3-(trifluoromethyl)-1H-pyrazol-4-yl)pyrimidin-2-amine], the IC50 under setting [2] was less than 0.01 µM.
For the compound `C[C@@H](Cn1cnnn1)Oc1cc(-c2cnc(Nc3cn(C4CCN(Cc5nccs5)CC4)nc3C(F)(F)F)nc2)ccc1Cl` [Example 551, (S)-5-(3-((1-(1H-tetrazol-1-yl)propan-2-yl)oxy)-4-chlorophenyl)-N-(1-(1-(thiazol-2-ylmethyl)piperidin-4-yl)-3-(trifluoromethyl)-1H-pyrazol-4-yl)pyrimidin-2-amine], the IC50 under setting [3] lay within 0.01 to 0.1 µM.
In the case of `C[C@@H](Cn1cnnn1)Oc1cc(-c2cnc(Nc3cn(C4CCC(=O)CC4)nc3OCC(F)F)nc2)ccc1Cl` [Example 800, (S)-4-(4-((5-(3-((1-(1H-tetrazol-1-yl)propan-2-yl)oxy)-4-chlorophenyl)pyrimidin-2-yl)amino)-3-(2,2-difluoroethoxy)-1H-pyrazol-1-yl)cyclohexan-1-one], the IC50 under setting [2] was less than 0.01 µM.
`C[C@@H](Cn1cnnn1)Oc1cc(-c2cnc(Nc3cn(C4CCN(CC5COC5)CC4)nc3C(F)(F)F)nc2)ccc1Cl` [Example 489, (S)-5-(3-((1-(1H-tetrazol-1-yl)propan-2-yl)oxy)-4-chlorophenyl)-N-(1-(1-(oxetan-3-ylmethyl)piperidin-4-yl)-3-(trifluoromethyl)-1H-pyrazol-4-yl)pyrimidin-2-amine] registered an IC50 under setting [3] of less than 0.01 µM.
Turning to `C[C@@H](Cn1cnnn1)Oc1cc(-c2cnc(Nc3cn([C@@H]4C[C@H]5CC[C@@H](C4)N5C(=O)OC(C)(C)C)nc3C(F)(F)F)nc2)ccc1Cl` [Example 701, tert-butyl (1R,3s,5S)-3-(4-((5-(3-(((S)-1-(1H-tetrazol-1-yl)propan-2-yl)oxy)-4-chlorophenyl)pyrimidin-2-yl)amino)-3-(trifluoromethyl)-1H-pyrazol-1-yl)-8-azabicyclo[3.2.1]octane-8-carboxylate], the IC50 under setting [4] is no less than 0.1 µM.
Under setting [4], `CC(C#N)n1cc(Nc2ncc(-c3ccc(Cl)c(O[C@@H](C)Cn4cnnn4)c3)cn2)c(C(F)(F)F)n1` (stereo partly drawn) [Example 716, 2-(4-((5-(3-(((S)-1-(1H-tetrazol-1-yl)propan-2-yl)oxy)-4-chlorophenyl)pyrimidin-2-yl)amino)-3-(trifluoromethyl)-1H-pyrazol-1-yl)propanenitrile] had an IC50 of 0.01 to 0.1 µM.
Take `C[C@@H](Cn1cnnn1)Oc1cc(-c2cnc(Nc3cn([C@H]4C[C@H](N5CCOCC5)C4)nc3OCC(F)(F)F)nc2)ccc1Cl` [Example 943, 5-(3-(((S)-1-(1H-tetrazol-1-yl)propan-2-yl)oxy)-4-chlorophenyl)-N-(1-(trans-3-morpholinocyclobutyl)-3-(2,2,2-trifluoroethoxy)-1H-pyrazol-4-yl)pyrimidin-2-amine]: under setting [1], the IC50 was less than 0.01 µM.
As for `COc1nc(N2CCNCC2)ccc1Nc1ncc(-c2ccc(Cl)c(O[C@@H](C)Cn3cnnn3)c2)cn1` [Example 614, (S)-5-(3-((1-(1H-tetrazol-1-yl)propan-2-yl)oxy)-4-chlorophenyl)-N-(2-methoxy-6-(piperazin-1-yl)pyridin-3-yl)pyrimidin-2-amine], the IC50 under setting [4] is less than 0.01 µM.
In turn, `C[C@@H](Cn1cnnn1)Oc1cc(-c2cnc(Nc3ccnn3-c3ccccc3)nc2)ccc1Cl` [Example 754, (S)-5-(3-((1-(1H-tetrazol-1-yl)propan-2-yl)oxy)-4-chlorophenyl)-N-(1-phenyl-1H-pyrazol-5-yl)pyrimidin-2-amine] yielded an IC50 under setting [2] of 0.01 to 0.1 µM.
Compound `C[C@@H](Cn1cnnn1)Oc1cc(-c2cnc(Nc3cn(C4CCN(Cc5ccccn5)CC4)nc3C(F)(F)F)nc2)ccc1Cl` [Example 564, (S)-5-(3-((1-(1H-tetrazol-1-yl)propan-2-yl)oxy)-4-chlorophenyl)-N-(1-(1-(pyridin-2-ylmethyl)piperidin-4-yl)-3-(trifluoromethyl)-1H-pyrazol-4-yl)pyrimidin-2-amine] returned an IC50 under setting [3] of less than 0.01 µM.
`Cc1noc(C)c1Nc1ncc(-c2ccc(Cl)c(O[C@@H](C)Cn3cnnn3)c2)cn1` [Example 747, (S)-N-(5-(3-((1-(1H-tetrazol-1-yl)propan-2-yl)oxy)-4-chlorophenyl)pyrimidin-2-yl)-3,5-dimethylisoxazol-4-amine] showed an IC50 under setting [2] of 0.01 to 0.1 µM.
On the same count and under the same terms, to `C[C@@H](Cn1cnnn1)Oc1cc(-c2cnc(Nc3cn(-c4ccc(=O)[nH]c4)nc3C(F)(F)F)nc2)ccc1Cl` [Example 868, (S)-5-(4-((5-(3-((1-(1H-tetrazol-1-yl)propan-2-yl)oxy)-4-chlorophenyl)pyrimidin-2-yl)amino)-3-(trifluoromethyl)-1H-pyrazol-1-yl)pyridin-2(1H)-one] belongs 0.01 to 0.1 µM.
The compound `Cc1nccc(N2CC3(CC(n4cc(Nc5ncc(-c6ccc(Cl)c(O[C@@H](C)Cn7cnnn7)c6)cn5)c(OCC(F)(F)F)n4)C3)C2)n1` [Example 1000, (S)-5-(3-((1-(1H-tetrazol-1-yl)propan-2-yl)oxy)-4-chlorophenyl)-N-(1-(2-(2-methylpyrimidin-4-yl)-2-azaspiro[3.3]heptan-6-yl)-3-(2,2,2-trifluoroethoxy)-1H-pyrazol-4-yl)pyrimidin-2-amine] registered an IC50 under setting [1] of less than 0.01 µM.
Under setting [2], `C[C@@H](Cn1cnnn1)Oc1cc(-c2cnc(Nc3cn([C@H]4CC[C@@H](N5CCC5)CC4)nc3C(F)(F)F)nc2)ccc1C#N` [Example 773, 2-(((S)-1-(1H-tetrazol-1-yl)propan-2-yl)oxy)-4-(2-((1-(cis-4-(azetidin-1-yl)cyclohexyl)-3-(trifluoromethyl)-1H-pyrazol-4-yl)amino)pyrimidin-5-yl)benzonitrile] gave an IC50 of less than 0.01 µM.
